The values that follow come from US8017612B2, “Piperazine compound and use thereof as a HCV polymerase inhibitor” (priority 2006, dated 2011).

As a reminder, the IC50 is the concentration at which inhibition is half-maximal.

Structures can show the parent of a compound that is named as a salt.

In assay [1] the target is T1, HCV polymerase (NS5B) type 1a (Hepatitis C virus genotype 1a, UniProt P26664).
T1 construct: made in house; host or cells: Escherichia coli (by the 'similar method' of the 1b enzyme)
Kind of assay: Assay of enzyme (HCV polymerase) inhibitory activity, type 1a enzyme. In kind it is biochemical, HCV type 1a (cloned from the blood of patients). The text has this:
(§1) The evaluation of the HCV polymerase inhibitory activity of the compound of the present invention is explained in the following. This polymerase is an enzyme coded for by the non-structural protein region called NS5B on the genome RNA of HCV.
(§2) i) Preparation of Enzyme (HCV Polymerase)
(§3) Using, as a template, a cDNA clone corresponding to the full length genome RNA of HCV BK strain (type 1b) obtained from the blood of a patient with hepatitis C, a region encoding NS5B (J Virol 1991 March, 65(3), 1105-13, 544 amino acids after deletion of 47 amino acids on the C-terminal) was amplified by PCR. The objective gene was prepared by adding a 6 His tag {base pair encoding 6 continuous histidine (His)} to the 3′ end thereof and transformed to Escherichia coli. The Escherichia coli capable of producing the objective protein was cultured. The obtained cells were suspended in a buffer solution and crushed in a microfluidizer. The supernatant was obtained by centrifugation and applied to various column chromatographys {mono-S, Sephacryl S-200 (Pharmacia)}, inclusive of metal chelate chromatography, to give a standard enzyme product.
Standard enzyme products for type 1a (cloned from the blood of patients) were also obtained by a similar method.
(§4) ii) Synthesis of Substrate RNA
(§5) Using a synthetic primer designed based on the sequence of HCV genomic 3′ untranslated region, a DNA fragment (148 bp) containing polyU and 3′X sequence was entirely synthesized and cloned into plasmid pBluescript SK II(+) (Stratagene). The cDNA encoding full length NS5B, which was prepared in i) above, was digested with restriction enzyme KpnI to give a cDNA fragment containing the nucleotide sequence of from the restriction enzyme cleavage site to the termination codon. This cDNA fragment was inserted into the upstream of 3′ untranslated region of the DNA in pBluescript SK II(+) and ligated. The about 450 bp inserted DNA sequence was used as a template in the preparation of substrate RNA. This plasmid was cleaved immediately after the 3′X sequence, linearized and purified by phenol-chloroform treatment and ethanol precipitation to give DNA.
(§6) RNA was synthesized (37° C., 4 hr) by run-off method using this purified DNA as a template, a promoter of pBluescript SK II(+), MEGAscript RNA synthesis kit (Ambion) and T7 RNA polymerase. DNase I was added and the mixture was incubated for 1 hr. The template DNA was removed by decomposition to give a crude RNA product. This crude product was treated with phenol-chloroform and purified by ethanol precipitation to give the objective substrate RNA.
(§7) This RNA was applied to urea denaturation polyacrylamide gel electrophoresis to confirm the quality thereof and preserved at −80° C.
(§8) iii) Assay of Enzyme (HCV Polymerase) inhibitory activity
(§9) A test substance (compound of the present invention) and a reaction mixture (30 μl) having the following composition were reacted at 25° C. for 60 min.
(§10) 10% Trichloroacetic acid and 1% sodium pyrophosphate solution (150 μl) at 4° C. was added to this reaction mixture to stop the reaction. The reaction mixture was left standing at 4° C. for 15 min to insolubilize RNA. This RNA was trapped on a glass filter (PerkinElmer, GF/B) upon filtration by suction. This filter was washed with a solution containing 1% trichloroacetic acid and 0.1% sodium pyrophosphate, washed with 90% ethanol and dried. A liquid scintillation cocktail (PerkinElmer) was added and the radioactivity of RNA synthesized by the enzyme reaction was measured on a liquid scintillation counter.
The HCV polymerase inhibitory activity (IC50) of the compound of the present invention was calculated from the values of radioactivity of the enzyme reaction with and without the test substance. […]

For assay [2], the target named is T2, HCV polymerase (NS5B) type 1b (Hepatitis C virus genotype 1b, UniProt P26663).
T2 construct: a region encoding NS5B (J Virol 1991 March, 65(3), 1105-13, 544 amino acids after deletion of 47 amino acids on the C-terminal); 6xHis (C); made in house; host or cells: Escherichia coli
Description: Assay of enzyme (HCV polymerase) inhibitory activity, type 1b enzyme. It is filed as biochemical, HCV BK strain (type 1b).
From the text: as §1, §2, §3, §4, §5, §6, §7, §8, §9, §10
The HCV polymerase inhibitory activity (IC50) of the compound of the present invention was calculated from the values of radioactivity of the enzyme reaction with and without the test substance.
Reaction mixture: HCV polymerase (type 1b 0.5 μg/ml or type 1a 1.5 μg/m) obtained in i), substrate RNA (5 μg/ml) obtained in ii), ATP (50 μM), GTP (50 μM), CTP (50 μM), UTP (2 μM), [5,6-^3H]UTP (30-60 Ci/mmol (Amersham Biosciences), 1 μCi) 20 mM Tris-HCl (pH 7.5), EDTA (1 mM), MgCl2 (5 mM), NaCl (50 mM), DTT (1 mM), BSA (0.01%)

[3] abbreviates: HCV polymerase inhibitory activity IC50, 1a, type 1a enzyme.
The mark [4] stands for this setting: HCV polymerase inhibitory activity IC50, 1b, type 1b enzyme.
[5] abbreviates: HCV polymerase inhibitory activity (IC50), 1a, type 1a enzyme 1.5 μg/ml, 25° C., 60 min.
Where [6] appears, read: HCV polymerase inhibitory activity (IC50), 1b, type 1b enzyme 0.5 μg/ml, 25° C., 60 min.

`O=C(NCc1ccc(OC(F)(F)F)cc1)[C@H]1CN(c2nc3cn[nH]c(=O)c3s2)CCN1S(=O)(=O)c1ccc(Cl)cc1` [Example 873, (R)-1-(4-chloro-benzenesulfonyl)-4-(7-oxo-6,7-dihydro-thiazolo[4,5-d]pyridazin-2-yl)-piperazine-2-carboxylic acid 4-trifluoromethoxy-benzylamide]: the IC50 in assay [1] (setting [3]) and in assay [2] (setting [4]) was under 0.1 µM throughout.

Turning to `COCC(=O)N1CCN(S(=O)(=O)c2ccc(C(F)(F)F)cc2)[C@@H](C(=O)NCc2ccc(C(C)C)cc2)C1` [Example 279, (R)-4-(2-methoxy-acetyl)-1-(4-trifluoromethyl-benzenesulfonyl)-piperazine-2-carboxylic acid 4-isopropyl-benzylamide], the IC50 in assay [1] (setting [5]) and in assay [2] (setting [6]) was 0.1 to 1 µM throughout.

For the molecule `CCC(F)(F)c1ccc(CNC(=O)[C@H]2CN(c3ccc4cnccc4n3)CCN2S(=O)(=O)c2ccc(OC(F)(F)F)cc2)cc1` [Example 740, (R)-4-[1,6]naphthyridin-2-yl-1-(4-trifluoromethoxy-benzenesulfonyl)-piperazine-2-carboxylic acid 4-(1,1-difluoro-propyl)-benzylamide], the half-maximal inhibitory concentration (IC50) in assay [1] (setting [3]) and in assay [2] (setting [4]) was under 0.1 µM each time.

On to `CC(=O)N1CCN(S(=O)(=O)c2ccc3c(c2)OC(F)(F)C(F)(F)O3)[C@@H](C(=O)NCc2ccc(C(C)C)cc2)C1` [Example 306, (R)-4-acetyl-1-(2,2,3,3-tetrafluoro-2,3-dihydro-benzo[1,4]dioxine-6-sulfonyl)-piperazine-2-carboxylic acid 4-isopropyl-benzylamide], for which the IC50 in assay [1] (setting [5]) and in assay [2] (setting [6]) was 0.1 to 1 µM each time.

Regarding `CCCc1ccc(CNC(=O)[C@H]2CN(c3cnc4cncnc4n3)CCN2S(=O)(=O)c2ccc(OC(F)(F)F)cc2)cn1` [Example 720, (R)-4-pteridin-7-yl-1-(4-trifluoromethoxy-benzenesulfonyl)-piperazine-2-carboxylic acid (6-propyl-pyridin-3-ylmethyl)-amide], the IC50 in assay [1] (setting [3]) and in assay [2] (setting [4]) was under 0.1 µM each time.

As to `O=C(NCc1ccc(OC(F)(F)F)cc1)[C@H]1CN(c2nc3nc(C(F)(F)F)ncc3s2)CCN1S(=O)(=O)c1ccc(C(F)(F)F)cc1` [Example 981, (R)-1-(4-trifluoromethyl-benzenesulfonyl)-4-(5-trifluoromethyl-thiazolo[4,5-d]pyrimidin-2-yl)-piperazine-2-carboxylic acid 4-trifluoromethoxy-benzylamide], the IC50 in assay [1] (setting [3]) and in assay [2] (setting [4]) was under 0.1 µM in each case.

Turning to `CCCc1ccc(CNC(=O)[C@H]2CN(c3nc4c(C(=O)OCC)cncc4s3)CCN2S(=O)(=O)c2ccc(OC(F)(F)F)cc2)cc1` [Example 1083, 2-[(R)-3-(4-propyl-benzylcarbamoyl)-4-(4-trifluoromethoxy-benzenesulfonyl)-piperazin-1-yl]-thiazolo[5,4-c]pyridine-7-carboxylic acid ethyl ester], the half-inhibitory concentration (IC50) in assay [1] (setting [3]) and in assay [2] (setting [4]) was under 0.1 µM in each case.

As to `CC(C)c1ccc(S(=O)(=O)N2CCN(C=O)CC2C(=O)NCc2ccc(C(F)(F)F)cc2)cc1` (stereo not shown) [Example 63, 4-formyl-1-(4-isopropyl-benzenesulfonyl)-piperazine-2-carboxylic acid 4-trifluoromethyl-benzylamide], the IC50 in assay [1] (setting [5]) and in assay [2] (setting [6]) was over 1 µM in each case.

With `CC(C)c1ccc(S(=O)(=O)N2CCN(C(=O)c3ccccc3)CC2C(=O)NCc2ccc(C(F)(F)F)cc2)cc1` (stereo not shown) [Example 123, 4-benzoyl-1-(4-isopropyl-benzenesulfonyl)-piperazine-2-carboxylic acid 4-trifluoromethyl-benzylamide], the IC50 in assay [1] (setting [5]) and in assay [2] (setting [6]) was over 1 µM throughout.

Take `CCCc1ccc(CNC(=O)[C@H]2CN(c3cnc(C(=O)O)cn3)CCN2S(=O)(=O)c2ccc(CC)cc2)cc1` [Example 415, (R)-4-(4-ethyl-benzenesulfonyl)-3-(4-propyl-benzylcarbamoyl)-3,4,5,6-tetrahydro-2H-[1,2′]bipyrazinyl-5′-carboxylic acid]: the IC50 in assay [1] (setting [5]) and in assay [2] (setting [6]) was under 0.1 µM in each case.

In the case of `COc1cccc(S(=O)(=O)N2CCN(C(C)=O)CC2C(=O)NCc2ccc(C(F)(F)F)cc2)c1` (stereo not shown) [Example 71, 4-acetyl-1-(3-methoxy-benzenesulfonyl)-piperazine-2-carboxylic acid 4-trifluoromethyl-benzylamide], the IC50 in assay [1] (setting [5]) and in assay [2] (setting [6]) was over 1 µM in each case.

In the case of `CC(=O)N1CCN(S(=O)(=O)c2ccc3c(c2)CCO3)C(C(=O)NCc2ccc(C(F)(F)F)cc2)C1` (stereo not shown) [Example 48, 4-acetyl-1-(2,3-dihydro-benzofuran-5-sulfonyl)-piperazine-2-carboxylic acid 4-trifluoromethyl-benzylamide], the IC50 in assay [1] (setting [5]) and in assay [2] (setting [6]) was over 1 µM throughout.

`CN(C)c1ccc(CNC(=O)C2CN(C(=O)CN)CCN2S(=O)(=O)c2ccc(I)cc2)cc1` (stereo not shown) [Example 88, 4-(2-amino-acetyl)-1-(4-iodo-benzenesulfonyl)-piperazine-2-carboxylic acid 4-dimethylamino-benzylamide hydrochloride]: the 50% inhibitory concentration (IC50) in assay [1] (setting [5]) and in assay [2] (setting [6]) was over 1 µM in each case.

As for `CC(=O)N1CCN(S(=O)(=O)c2ccc(C(C)C)cc2)C(C(=O)NCc2ccc(-c3ccccc3Cl)cc2)C1` (stereo not shown) [Example 142, 4-acetyl-1-(4-isopropyl-benzenesulfonyl)-piperazine-2-carboxylic acid (2′-chloro-biphenyl-4-ylmethyl)-amide], the IC50 in assay [1] (setting [5]) and in assay [2] (setting [6]) was over 1 µM in each case.

On to `CCCc1ccc(CNC(=O)[C@H]2CN(c3cnc4cncc(C(=O)O)c4n3)CCN2S(=O)(=O)c2ccc(C(F)(F)F)cc2)cc1` [Example 842, 2-[(R)-3-(4-propyl-benzylcarbamoyl)-4-(4-trifluoromethyl-benzenesulfonyl)-piperazin-1-yl]-pyrido[3,4-b]pyrazine-8-carboxylic acid], for which the IC50 in assay [1] (setting [3]) and in assay [2] (setting [4]) was under 0.1 µM throughout.

Regarding `CC(=O)N1CCN(S(=O)(=O)c2ccc(C(F)(F)F)cc2)[C@@H](C(=O)NCc2ccc(C(C)C)cc2)C1` [Example 176, (R)-4-acetyl-1-(4-trifluoromethyl-benzenesulfonyl)-piperazine-2-carboxylic acid 4-isopropyl-benzylamide], the IC50 in assay [1] (setting [5]) and in assay [2] (setting [6]) was 0.1 to 1 µM each time.

Regarding `CCc1ccc(CNC(=O)C2CN(C(C)=O)CCN2S(=O)(=O)c2ccc(C(C)C)cc2)cc1` (stereo not shown) [Example 144, 4-acetyl-1-(4-isopropyl-benzenesulfonyl)-piperazine-2-carboxylic acid 4-ethyl-benzylamide], the IC50 in assay [1] (setting [5]) and in assay [2] (setting [6]) was 0.1 to 1 µM each time.
